Measurements: patent publication US4409240A, “Derivatives of dihydroxybenzoic acid and pharmaceutical composition thereof” (Kureha Kagaku Kogyo Kabushiki Kaisha, priority 1981, dated 1983)

Key:
[1] = in vivo; details: mouse, in vivo, po
Source text: (§1) Acute toxicity was examined by administering perorally an aqueous solution of each Specimen to female JCL-ICR mouse of 5 to 6 weeks after birth. As the Specimen, trans-4-[N-(3',4'-dihydroxybenzoyl)aminomethyl]cyclohexane-1-carboxylic acid, 4-[N-(3',4'-dihydroxybenzoyl)amino]benzoic acid and 6-[N-(3',4'-dihydroxybenzoyl)amino]caproic acid were used.

[2] = tested on: female JCL-ICR mouse; assay: Acute toxicity; details: peroral, aqueous solution, female JCL-ICR mouse 5 to 6 weeks
Source text: as §1

[3] = tested on: platelet aggregation (rabbit platelet rich plasma); assay: Inhibitory effect on platelet aggregation (induced by sodium arachidonate); format: cell-based; details: Oryctolagus cuniculus, average value, 1.5 mM of each Specimen, rabbit PRP, preincubated 37° C. 5 min, read-out: Inhibition rate of platelet aggregation
Experimental: Rabbit platelet rich plasma (PRP) was used for Aggregation Tests. PRP was prepared by centrifugation of blood collected from the ear vein of Rabbit and diluted into number-concentration 300,000/μl with platelet poor plasma. Platelet aggregation was induced by Sodium Arachidonate and monitored (measured) with a four channel platelet aggregation Tracer PAT-4A (Niko Bioscience Co., Japan). Aggregation Tracer tube containing 230 μl PRP was preincubated at 37° C. for 5 min with each Specimen.

[4] = tested on: polynuclear leukocyte migration; assay: Inhibitory effect on polynuclear leukocyte migration (Granuloma CMC pouch method); format: in vivo, rat (male, Donyru); details: average value; 100 mg p.o./kg body weight; 6 hours after the administration; rat CMC pouch
Experimental: After shearing the rat on the dorsum about 5 cm in diameter, 5 ml of air was hypodermically injected into the site to form a pouch. After 24 hours, 5 ml of aqueous 2% (w/v) solution of CMC sodium salt at 37° C. was injected into the pouch, and at the same time an aqueous solution of each Specimen was administered perorally to the rat.
After the injection of CMC, the liquid in the pouch was collected as the time passed by in an amount of 0.5 ml and stained. Then the number of polynuclear leukocyte migrated into the pouch was counted.

[5] = tested on: adjuvant arthritis; assay: Prophylactic effect on adjuvant arthritis; format: in vivo, rat (female JCL-SD); details: average value of prophylactic rate; 100 mg p.o./kg/day for continuous 14 days; rat
Experimental: Freund's complete adjuvant (0.6 mg/0.1 ml) was inoculated into the right hind paw of the etherized rat. After palinesthesia, each specimen was administered perorally once a day for 14 continuous days.

| Compound | LD50 [1] [mg/kg] | abnormality on the mouse [2] | inhibition at 1500 µM [3] [%] | Inhibition rate of polynuclear leukocyte migration [4] [%] | Prophylactic effect on adjuvant arthritis [5] [%] |
| --- | --- | --- | --- | --- | --- |
| O=C(O)CCCCCNC(=O)c1ccc(O)c(O)c1 [6-[N-(3',4'-dihydroxybenzoyl)amino]caproic acid] | > 3000 | no abnormality on the mouse was found | – | – | – |
| O=C(O)c1ccc(NC(=O)c2ccc(O)c(O)c2)cc1 [4-[N-(3',4'-dihydroxybenzoyl)amino]benzoic acid] | > 3000 | no abnormality on the mouse was found | – | – | – |
| O=C(NC[C@H]1CC[C@H](C(=O)O)CC1)c1ccc(O)c(O)c1 [trans-4-[N-(3',4'-dihydroxybenzoyl)aminomethyl]cyclohexane-1-carboxylic acid] | > 3000 | no abnormality on the mouse was found | 100 | 35 | 30 |
| O=C(NC[C@H]1CC[C@H](C(=O)O)CC1)c1ccccc1O.[Na] [Sodium trans-4-(N-salicyloyl-aminomethyl)cyclohexane-1-carboxylic acid, reference compound] | – | – | 10 | 5 | 5 |
